Measurements from US8865864B2, “Mutant epidermal growth factor polypeptides with improved biological activity and methods of their making and use” (The Board of Trustees of the Leland Stanford Junior …, priority 2011, dated 2014).

What was measured:
BJ-5ta cells = experiment: Cell proliferation assay ([3H]TdR incorporation); assay type: cell-based, human; conditions: for level of cell proliferation ([3H]TdR incorporation): 1 nM dose, CFPS-produced protein
Protocol: BJ-5ta cells, human immortalized foreskin fibroblast cells that express human EGFR (American Type Culture Collection), were plated in 96-well plates at a density of 2500 cells per well in 100 μl of full medium [Dulbecco's modified Eagle's medium (DMEM)] supplemented with 1% penicillin/streptomycin (Pen/Strep), 1% I-glutamine, 1% sodium pyruvate, 20% M199, and 10% fetal bovine serum. All cell culture reagents were from invitrogen. After 24 h, cells were serum-starved for 48 h in serum-free medium (DMEM supplemented with 1% Pen/Strep, 1% I-glutamine, 1% sodium pyruvate, and 20% M199). The medium was then replaced with 100 μl of serum-free medium containing the indicated concentrations of treatment protein.
When indicated, the standard serum-free medium used during protein treatment was replaced with advanced media (Advanced DMEM supplemented with 1% Pen/Strep, 1% I-glutamine, 1% sodium pyruvate, and 20% M199) or supplemented with human recombinant insulin. […]
[3H]TdR incorporation was measured 24 h later by freezing the plates at −80° C. overnight, thawing the plates at room temperature, harvesting the cells onto glass fiber filter mats (Perkin Elmer) with a Mach IIIM Harvester (Tomtec), and performing scintillation counting with a Wallac MicroBeta Counter (Perkin Elmer).
BJ5ta cells were plated in 96-well plates at densities of 2,500 cells/well (BJ5ta), in 100 μl of complete medium. […] 3H-TdR incorporation was measured 24 h later by freezing the cells overnight at −80° C. and harvesting the cells onto glass fiber filtermats (Perkin Elmer) using a Mach IIIM harvester (Tomtec). […]
BJ-5ta cells were plated in 96-well plates at a density of 5,000 cells/well and 2,500 cells/well, respectively, in 100 μl of medium. […] 3H-TdR incorporation was measured 24 h later by harvesting the cells onto glass fiber filtermats (Perkin Elmer, Waltham, Mass.) using a Mach IIIM harvester (Tomtec, Hamden, Conn.) and performing scintillation counting with a Wallac MicroBeta (Perkin Elmer, Waltham, Mass.).

BJ5ta cells = experiment: Chemotactic cell migration assay, BJ-5ta; assay type: cell-based, human; conditions: 0.3 nM, 3-hour exposure
Protocol: Non-migrated cells were removed by wiping the upper side of the membrane with a cotton swab. The transwells were washed three times with PBS, fixed with methanol, and stained with modified Giemsa. Pictures were taken of the migrated stained cells in nine random high-powered fields (20×) using light microscopy, and the number of migrated cells was counted.
Costar transwells (Corning 3422, 8.0 μm pores, 6.5 mm diameter) were coated on both sides with 10 μg/ml bovine fibronectin (Sigma F1141-2MG, 1 mg/ml) overnight at 4° C. in buffer (50 mM Tris-HCl, 500 mM NaCl, pH 7.5), Transwells were then washed 3 times with PBS, and then blocked with PBS with 1% BSA (PBS/BSA) at 37° C. for 1 hr prior to usage. […] Non-migrated cells were removed by wiping the upper side of the membrane with Q-tips. […] Pictures were taken of the migrated-stained cells in nine random high-powered fields (20×) using light microscopy, and the number of migrated cells was counted using ImageJ software.
Costar transwells (8.0 μm pores, 6.5 mm diameter) were coated on both sides with bovine fibronectin (10 μg/ml) overnight at 4° C. washed 3 times with PBS, and then blocked with 1% bovine serum albumin (BSA) in PBS at 37° C. for 1 h prior to usage. […] Pictures were taken of the migrated-stained cells in nine random high powered fields (20×) using light microscopy, and the number of migrated cells were counted.

NR6WT cells = experiment: Chemotactic cell migration assay, NR6WT; assay type: cell-based, murine; conditions: 0.3 nM, 3-hour exposure
Protocol: (§1) Costar transwells (8.0 μm pores, 6.5 mm diameter) were coated on both sides with bovine fibronectin (10 μg/ml) overnight at 4° C. washed 3 times with PBS, and then blocked with 1% bovine serum albumin (BSA) in PBS at 37° C. for 1 h prior to usage. […] Non-migrated cells were removed by wiping the upper side of the membrane with a cotton swab. The transwells were washed three times with PBS, fixed with methanol, and stained with modified Giemsa. Pictures were taken of the migrated-stained cells in nine random high powered fields (20×) using light microscopy, and the number of migrated cells were counted.

BALB/3T3 cells = experiment: Chemotactic cell migration assay, BALB/3T3; assay type: cell-based; conditions: 0.3 nM, 3-hour exposure
Protocol: as §1

[1] = system: ErbB receptors expressed on the surface of CHO cells; experiment: EGF ligand specificity on transfected CHO cells; assay type: binding; conditions: 25 nM, 10 min, CHO cells individually expressing ErbB receptors
Protocol: The binding specificities of wild-type and mutant EGF were determined by flow cytometry using CHO cells transfected with EGFR or other ErbB receptor family members. […] Cells were labeled with a FITC-conjugated antibody directed against the N-terminal FLAG epitope tag on EGF and analyzed by flow cytometry.

hEGFR and mEGFR = experiment: SPR pH titration binding (Example 3); design: species or system human and murine; conditions: 200 nM ligand, pH 5.0 to 8.5
Protocol: pH titration binding experiments were performed at 25° C. in degassed buffer at various pHs ranging from 5.0 to 8.5. Wild-type and mutant EGF were diluted to 200 nM in pH buffer and flowed over the surface of the hEGFR sensorchip at a flow rate of 20 μL/min for 2 min. The hEGFR and mEGFR surfaces were regenerated as noted above. pH titration binding experiments were performed in triplicate at each pH over flow cells one and two for bath the hEGFR and mEGFR surfaces. The steady-state binding response was measured for each growth factor at the association phase plateau of the sensorgram.

| Substance | cell proliferation compared to wild-type EGF (BJ-5ta cells; varying concentrations, 72 hours) | chemotactic migration compared to wild-type EGF, BJ-5ta (BJ5ta cells) | chemotactic migration compared to wild-type EGF, NR6WT (NR6WT cells) | chemotactic migration compared to wild-type EGF, BALB/3T3 (BALB/3T3 cells) | ErbB binding specificity [1] | pH sensitivity of steady-state binding to EGFR (hEGFR and mEGFR) | level of cell proliferation ([3H]TdR incorporation) (BJ-5ta cells) |
| --- | --- | --- | --- | --- | --- | --- | --- |
| m123: high-affinity mutant EGF SEQ ID NO:17: NSYSECPPSYDGYCLHDGVCRYIEALDSYACNCVVGYAGERCQYRDLRWWGRR | no significant changes in the levels of cell proliferation | increased chemotactic migration | increased chemotactic migration | increased chemotactic migration | bound specifically to EGFR but not to other ErbB receptor family members | much less so |  |
| L47R: EGF point mutant, leucine 47 substituted with arginine, used in mock libraries (NSDSECPLSHDGYCLHDGVCMYIEALDKYACNCVVGYIGERCQYRDRKWWELR; not fully specified; Epidermal growth factor; UniProt P01133 971-1023, looked up, variant L47R) |  |  |  |  |  |  | low |
| L47D: EGF point mutant, leucine 47 substituted with aspartic acid, used in mock libraries (NSDSECPLSHDGYCLHDGVCMYIEALDKYACNCVVGYIGERCQYRDDKWWELR; not fully specified; Epidermal growth factor; UniProt P01133 971-1023, looked up, variant L47D) |  |  |  |  |  |  | intermediate |
